Some test systems named below: CAKI-1 renal; KM12 colon; M14 melanoma; MCF7 breast; NCI-H226 lung; NCI-H460 lung; NCI-H522 lung; NCI/ADR-RES ovarian; OVCAR-8 ovarian; SN12C renal; SNB-19 CNS; A549 NSCLC; DMS 114 small cell lung; HCC-2998 colon; HOP-18 NSCLC; LOX IMVI melanoma; M19-MEL melanoma; SW-620 colon.
Common to all, as to test: NCI tumour cell line growth inhibition, 48 h

The values that follow come from PubChem BioAssay (NCI).

Values joined by “and” are separate entries in the source; they are usually repeats but may differ in a detail not shown here. Equal values may be shown once.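 Compound exposure: 48 hours, 5 concentrations, 96-well plates. GI50 is the concentration that inhibits growth by half. TGI denotes the concentration required for complete inhibition of growth.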

Take `C[C@H]1SC(c2ccc(Cl)cc2Cl)N(NC(=O)c2ccncc2)C1=O` (stereo partly specified): the TGI was greater than 100 µM in the assay with CAKI-1 renal; greater than 100 µM in the assay on KM12 colon; 69.9 µM with M14 melanoma; greater than 100 µM in the assay on MCF7 breast; 76.6 µM with NCI-H226 lung; greater than 100 µM in the assay on NCI-H460 lung. Besides, the TGI in the assay on NCI-H522 lung was 60.5 µM; with NCI/ADR-RES ovarian, greater than 100 µM; in the assay with OVCAR-8 ovarian, greater than 100 µM; in the assay with SN12C renal, greater than 100 µM; with SNB-19 CNS it was greater than 100 µM.

As for `CN(C)CCNC(=O)c1cccc2nc(-c3ccccc3)oc12`, the TGI with A549 NSCLC was greater than 100 µM; in the assay with DMS 114 small cell lung, greater than 100 µM; with HCC-2998 colon, greater than 100 µM; in the assay on HOP-18 NSCLC it was greater than 100 µM; in the assay with KM12 colon, greater than 100 µM; in the assay with LOX IMVI melanoma, greater than 71.8 µM. Further, the TGI was 99.5 µM in the assay on M19-MEL melanoma; 28.2 µM with MCF7 breast; 84 µM with NCI-H226 lung; greater than 100 µM in the assay with NCI-H460 lung; 99.6 µM in the assay with NCI/ADR-RES ovarian; greater than 100 µM in the assay with OVCAR-8 ovarian. Also, the TGI in the assay with SN12C renal is greater than 100 µM; in the assay with SNB-19 CNS, greater than 79.8 µM; in the assay on SW-620 colon it was greater than 100 µM.

`CCOC(=O)/C(O)=C1\C(=O)N(C)C(=O)C1c1cccc(OC)c1` (stereo unspecified): the TGI with A549 NSCLC, in the assay with CAKI-1 renal, in the assay on DMS 114 small cell lung, with HCC-2998 colon, with HOP-18 NSCLC and in the assay on KM12 colon was greater than 100 µM in each case. Besides, the TGI with LOX IMVI melanoma, with M19-MEL melanoma, with MCF7 breast, in the assay with NCI-H226 lung, with NCI-H460 lung and with NCI-H522 lung was greater than 100 µM each time. Also, the TGI in the assay with NCI/ADR-RES ovarian, in the assay on OVCAR-8 ovarian, with SN12C renal, in the assay on SNB-19 CNS and with SW-620 colon was greater than 100 µM throughout.

For the molecule `CC(=O)OCc1c(O)c2c(c(O)c1COC(C)=O)C(=O)C=CC2=O`, the TGI turned out to be 35.9 µM in the assay with A549 NSCLC; 21.8 µM in the assay on CAKI-1 renal; 25.4 µM with DMS 114 small cell lung; 31.3 µM in the assay with HCC-2998 colon; 35.8 µM with HOP-18 NSCLC; 28.2 µM in the assay on KM12 colon. The TGI amounted to 23.7 µM in the assay on M14 melanoma; 3.54 µM in the assay on M19-MEL melanoma; 32.5 µM with NCI-H226 lung; 30.2 µM with OVCAR-8 ovarian; 24.2 µM with SN12C renal; 14.3 µM with SW-620 colon.

`CCCSc1nc(-c2ccc(OC)cc2)c(C#N)c(=O)n1C1OC(COC(C)=O)C(OC(C)=O)C(OC(C)=O)C1OC(C)=O` (stereo unspecified): the TGI with DMS 114 small cell lung was greater than 100 µM; in the assay on KM12 colon, greater than 100 µM; in the assay with M14 melanoma, > 100 µM and 50.2 µM; with M19-MEL melanoma, greater than 100 µM; in the assay on NCI-H460 lung, greater than 100 µM; with NCI-H522 lung, greater than 100 µM. Further, the TGI in the assay on SNB-19 CNS is greater than 100 µM. In addition, the GI50 with M14 melanoma is > 100 µM and 23.1 µM; in the assay on SNB-19 CNS, > 100 µM and 45.4 µM.

As to `O=c1cc(-c2cc(O)c(O)c(-c3c(O)cc4oc(-c5ccc(O)c(O)c5)cc(=O)c4c3O)c2)oc2cc(O)cc(O)c12`, the TGI in the assay on A549 NSCLC, in the assay on CAKI-1 renal, in the assay with HCC-2998 colon, in the assay with LOX IMVI melanoma, in the assay on M14 melanoma and with MCF7 breast was greater than 25 µM throughout. Further, the TGI in the assay with NCI-H226 lung, in the assay with NCI-H460 lung, in the assay on NCI/ADR-RES ovarian, in the assay with OVCAR-8 ovarian, with SN12C renal and in the assay with SW-620 colon was greater than 25 µM throughout.
